Drawing on patent US8318762B2, “Pyrazolospiroketone acetyl-CoA carboxylase inhibitors” (Pfizer Inc., priority 2008, dated 2012), this text covers IC50 for 68 molecules.

pIC50: −log10 of the molar value.

The target in one assay is T1, recombinant human ACC2 (Homo sapiens, UniProt O00763).
T1 construct: a full length Cytomax clone of ACC2 was purchased from Cambridge Bioscience Limited; made in house; host or cells: CHO cells (tetracycline induction, pcDNA5 FRT TO-TOPO); purified on a Softlink Soft Release Avidin column
T1 sequence (O00763 whole entry): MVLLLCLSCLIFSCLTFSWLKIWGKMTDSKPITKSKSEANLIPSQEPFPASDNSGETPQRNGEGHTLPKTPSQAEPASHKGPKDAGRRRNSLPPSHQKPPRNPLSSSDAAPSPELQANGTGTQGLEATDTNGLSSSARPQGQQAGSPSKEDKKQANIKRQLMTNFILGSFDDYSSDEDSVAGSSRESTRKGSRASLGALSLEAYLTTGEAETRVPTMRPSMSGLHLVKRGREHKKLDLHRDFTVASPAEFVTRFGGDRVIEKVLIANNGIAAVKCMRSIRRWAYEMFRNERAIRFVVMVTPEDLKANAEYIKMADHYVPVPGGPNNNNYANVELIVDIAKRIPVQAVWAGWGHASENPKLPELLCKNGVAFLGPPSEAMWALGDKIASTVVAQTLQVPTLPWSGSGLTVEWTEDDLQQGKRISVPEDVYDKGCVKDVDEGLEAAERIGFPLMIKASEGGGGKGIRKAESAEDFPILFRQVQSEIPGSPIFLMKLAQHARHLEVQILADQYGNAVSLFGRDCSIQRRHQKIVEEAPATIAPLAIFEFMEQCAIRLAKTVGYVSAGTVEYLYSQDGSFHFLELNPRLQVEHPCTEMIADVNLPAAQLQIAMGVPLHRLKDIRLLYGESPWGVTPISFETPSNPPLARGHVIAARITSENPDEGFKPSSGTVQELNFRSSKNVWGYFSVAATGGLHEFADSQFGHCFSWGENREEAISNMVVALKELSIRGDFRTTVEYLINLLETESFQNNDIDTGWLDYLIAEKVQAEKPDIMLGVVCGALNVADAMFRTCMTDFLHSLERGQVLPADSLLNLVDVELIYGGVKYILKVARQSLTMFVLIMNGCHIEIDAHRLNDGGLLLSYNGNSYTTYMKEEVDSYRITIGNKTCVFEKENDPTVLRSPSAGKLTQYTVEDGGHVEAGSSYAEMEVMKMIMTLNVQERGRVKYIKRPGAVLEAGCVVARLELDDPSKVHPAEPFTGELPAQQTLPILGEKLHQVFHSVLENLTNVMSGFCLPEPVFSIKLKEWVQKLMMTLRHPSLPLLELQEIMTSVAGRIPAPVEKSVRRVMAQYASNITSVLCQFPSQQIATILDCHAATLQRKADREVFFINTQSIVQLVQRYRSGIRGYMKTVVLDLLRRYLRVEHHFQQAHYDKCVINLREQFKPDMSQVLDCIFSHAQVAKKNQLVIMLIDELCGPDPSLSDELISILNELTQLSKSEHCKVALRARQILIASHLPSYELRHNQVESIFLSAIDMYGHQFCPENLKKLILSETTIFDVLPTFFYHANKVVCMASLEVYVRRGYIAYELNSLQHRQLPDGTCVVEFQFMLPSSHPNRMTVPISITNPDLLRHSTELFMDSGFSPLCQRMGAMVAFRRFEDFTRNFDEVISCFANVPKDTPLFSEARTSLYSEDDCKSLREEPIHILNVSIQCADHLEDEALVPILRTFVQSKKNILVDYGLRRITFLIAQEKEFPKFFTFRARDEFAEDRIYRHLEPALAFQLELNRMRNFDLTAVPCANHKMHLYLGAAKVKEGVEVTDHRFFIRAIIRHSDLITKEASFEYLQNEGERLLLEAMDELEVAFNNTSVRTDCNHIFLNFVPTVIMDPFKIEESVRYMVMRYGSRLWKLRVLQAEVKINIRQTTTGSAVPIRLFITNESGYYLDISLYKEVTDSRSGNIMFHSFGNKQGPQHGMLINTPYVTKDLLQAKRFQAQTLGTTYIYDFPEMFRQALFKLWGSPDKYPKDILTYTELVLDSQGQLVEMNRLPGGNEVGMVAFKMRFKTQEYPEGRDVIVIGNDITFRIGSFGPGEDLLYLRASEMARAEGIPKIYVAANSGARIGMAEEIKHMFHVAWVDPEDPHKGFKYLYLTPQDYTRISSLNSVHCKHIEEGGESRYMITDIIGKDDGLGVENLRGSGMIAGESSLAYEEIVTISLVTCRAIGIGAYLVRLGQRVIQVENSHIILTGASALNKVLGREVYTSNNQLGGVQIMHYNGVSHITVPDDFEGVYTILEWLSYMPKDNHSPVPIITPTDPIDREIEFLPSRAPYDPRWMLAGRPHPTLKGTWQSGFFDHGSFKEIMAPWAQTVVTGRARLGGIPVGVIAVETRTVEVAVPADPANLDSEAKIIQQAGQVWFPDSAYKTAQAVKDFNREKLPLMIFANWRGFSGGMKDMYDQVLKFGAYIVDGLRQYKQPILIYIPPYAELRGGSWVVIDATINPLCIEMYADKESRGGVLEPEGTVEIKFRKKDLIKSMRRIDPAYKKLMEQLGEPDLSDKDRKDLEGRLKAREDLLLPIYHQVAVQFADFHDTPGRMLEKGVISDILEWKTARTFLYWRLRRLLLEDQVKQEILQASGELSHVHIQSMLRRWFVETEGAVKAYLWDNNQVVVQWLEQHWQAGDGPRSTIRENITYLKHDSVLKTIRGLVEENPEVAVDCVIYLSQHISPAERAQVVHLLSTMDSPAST
The experiment in a line: Measurement of human ACC2 inhibition (recombinant hACC2 Transcreener ADP detection FP assay). The format is biochemical.
Conditions: not given
The method, then:
[3] Measurement of human ACC2 inhibition. Human ACC2 inhibition was measured using purified recombinant human ACC2 (hrACC2). […] The ACC2 was expressed in CHO cells by tetracycline induction and harvested in 5 liters of DMEM/F12 with glutamine, biotin, hygromycin and blasticidin with 1 μg/mL tetracycline (Invitrogen, Carlsbad, Calif.). The conditioned medium containing ACC2 was then applied to a Softlink Soft Release Avidin column (Promega, Madison, Wis.) and eluted with 5 mM biotin. […] The purified ACC2 was dialyzed in 50 mM Tris, 200 mM NaCl, 4 mM DTT, 2 mM EDTA, and 5% glycerol. […] The final conditions for the assay were 50 mM HEPES, pH7.5, 5 mM MgCl2, 5 mM tripotassium citrate, 2 mM DTT, 0.5 mg/mL BSA, 30 μM acetyl-CoA, 50 μM ATP, and 8 mM KHCO3. Typically, a 10 μl reaction was run for 1 hour at room temperature, and 10 μl of Transcreener stop and detect buffer was added and incubated for an additional 1 hour.
On to `CCn1nc2c(c1C)OC1(CCN(C(=O)c3cc(C)c4nc[nH]c4c3)CC1)CC2=O` [3.005], for which the pIC50 was 7.10.

Still in this assay, the particulars now being: recombinant hACC2 transcreener assay; read-out: rhACC2 IC50.
As to `COc1cc(C(=O)N2CCC3(CC2)CC(=O)c2nn(C(C)(C)C)cc2O3)cc2c(C)n[nH]c12` [1.076], the pIC50 was 8.70. `CCc1n[nH]c2c(Cl)cc(C(=O)N3CCC4(CC3)CC(=O)c3nn(CC)cc3O4)cc12` [1.101]: the pIC50 is 7.35. On to `Cc1n[nH]c2cc(C(=O)N3CCC4(CC3)CC(=O)c3nn(C(C)C)cc3O4)ccc12` [2.005], for which the negative-log IC50 (pIC50) is 7.48. On the same count and under the same terms, in the case of `COc1cc(C(=O)N2CCC3(CC2)CC(=O)c2nn(CC(C)C)c(C)c2O3)cc2c(C)n[nH]c12` [1.132] it was 7.89; in that of `Cc1n[nH]c2cc(C(=O)N3CCC4(CC3)CC(=O)c3nn(C(C)(C)C)cc3O4)ccc12` [2.010], 7.55. Regarding `CCn1nc2c(c1C)OC1(CCN(C(=O)c3ccc4occc4c3)CC1)CC2=O` [17.002], the pIC50 is 6.55. Consider `CC(C)(C)n1cc2c(n1)C(=O)CC1(CCN(C(=O)c3ccc4[nH]nc(Cl)c4c3)CC1)O2` [1.103], for which the pIC50 was 8.30.

On to `Cc1n[nH]c2c(C)cc(C(=O)N3CCC4(CC3)CC(=O)c3nn(C5CCCC5)cc3O4)cc12` [1.009], for which the pIC50 is 8.40.

Turning to `CCc1c2c(nn1C)C(=O)CC1(CCN(C(=O)c3cc(C)c4[nH]ncc4c3)CC1)O2` [1.035], the pIC50 is 6.44.

For the molecule `CCc1n[nH]c2c(C)cc(C(=O)N3CCC4(CC3)CC(=O)c3nn(C(C)(C)C)cc3O4)cc12` [1.020], the pIC50 is 8.52. Same read-out and setting: in the case of `CCn1nc2c(c1C)OC1(CCN(C(=O)c3ccc4ncn(C)c4c3)CC1)CC2=O` [3.016] it was 6.57. Consider `CCn1nc2c(c1C)OC1(CCN(C(=O)c3cc(C)c4ncn(C)c4c3)CC1)CC2=O` [3.025], for which the pIC50 was 7.31. On to `CC(C)(C)n1cc2c(n1)C(=O)CC1(CCN(C(=O)c3ccc4c(c3)NC(=O)CC4)CC1)O2` [12.004], for which the pIC50 is 7.85. For `CCn1cc2c(n1)C(=O)CC1(CCN(C(=O)c3cc(OC)c4[nH]ncc4c3)CC1)O2` [1.053], the pIC50 is 7.21. With `CCn1nc2c(c1C)OC1(CCN(C(=O)c3cc(F)c4nc[nH]c4c3)CC1)CC2=O` [3.020], the pIC50 is 6.86. In the case of `CC(C)(C)n1cc2c(n1)C(=O)CC1(CCN(C(=O)c3ccc4cn[nH]c4c3)CC1)O2` [2.012], the pIC50 was 8.15. With `Cc1n[nH]c2c(C)cc(C(=O)N3CCC4(CC3)CC(=O)c3nn(C(C)C)c(C)c3O4)cc12` [1.013], the pIC50 was 8.10. Consider `COc1cc(C(=O)N2CCC3(CC2)CC(=O)c2nn(C(C)C)c(C)c2O3)cc2cn[nH]c12` [1.055], for which the pIC50 is 8.00. Consider `Cc1cc(C(=O)N2CCC3(CC2)CC(=O)c2nn(C)c(C)c2O3)cc2cn[nH]c12` [1.030], for which the pIC50 was 6.42. For the molecule `CCn1nc2c(c1C)OC1(CCN(C(=O)c3ccc4nc(C)[nH]c4c3)CC1)CC2=O` [3.013], the pIC50 was 6.68. On the same count and under the same terms, in the case of `COc1cc(C(=O)N2CCC3(CC2)CC(=O)c2nn(C(C)(C)C)cc2O3)cc2[nH]ncc12` [2.023] it was 8.52; in that of `Cc1n[nH]c2c(Cl)cc(C(=O)N3CCC4(CC3)CC(=O)c3nn(C(C)C)cc3O4)cc12` [1.102], 8.30.

On to `Cn1cnc2ccc(C(=O)N3CCC4(CC3)CC(=O)c3nn(C(C)(C)C)cc3O4)cc21` [3.014], for which the pIC50 was 7.68. For `CCn1nc2c(c1C)OC1(CCN(C(=O)c3ccc4nc[nH]c4c3)CC1)CC2=O` [3.026], the pIC50 was 6.77. Consider `COc1cc(C(=O)N2CCC3(CC2)CC(=O)c2nn(C(C)C)cc2O3)cc2c(C)n[nH]c12` [1.075], for which the pIC50 was 8.22. Regarding `CCn1nc2c(c1C)OC1(CCN(C(=O)c3ccc4cccnc4c3)CC1)CC2=O` [16.002], the pIC50 was 6.60. Turning to `CC(C)(C)n1cc2c(n1)C(=O)CC1(CCN(C(=O)c3ccc4snc(N)c4c3)CC1)O2` [7.002], the pIC50 is 8.52.

Take `CC(C)n1cc2c(n1)C(=O)CC1(CCN(C(=O)c3ccc4ocnc4c3)CC1)O2` [9.001]: the pIC50 is 6.52. Turning to `CCc1cc(C(=O)N2CCC3(CC2)CC(=O)c2nn(CC)c(C)c2O3)cc2c(C)n[nH]c12` [1.113], the pIC50 is 8.00.

Take `Cc1n[nH]c2c(C)cc(C(=O)N3CCC4(CC3)CC(=O)c3nn(C5CCC5)cc3O4)cc12` [1.010]: the pIC50 was 8.40. `Cc1c2c(nn1C)C(=O)CC1(CCN(C(=O)c3ccc4[nH]ncc4c3)CC1)O2` [1.070]: the pIC50 was 6.15. As for `CCc1n[nH]c2c(C)cc(C(=O)N3CCC4(CC3)CC(=O)c3nn(C(C)C)cc3O4)cc12` [1.017], the pIC50 was 8.52.

For `Cc1cc(C(=O)N2CCC3(CC2)CC(=O)c2nn(C(C)C)cc2O3)cc2ncn(C)c12` [8.002], the pIC50 was 7.23. In the case of `Cc1cc(C(=O)N2CCC3(CC2)CC(=O)c2nn(C(C)(C)C)cc2O3)cc2[nH]cnc12` [3.008], the pIC50 was 8.22. As for `CCn1nc2c(c1C)OC1(CCN(C(=O)c3cc(Cl)c4[nH]ncc4c3)CC1)CC2=O` [1.061], the pIC50 was 7.27.

Turning to `CCn1nc2c(c1C)OC1(CCN(C(=O)c3ccc4c(c3)ncn4C)CC1)CC2=O` [8.005], the pIC50 was 6.80.

Take `CCCn1cc2c(n1)C(=O)CC1(CCN(C(=O)c3cc(C)c4[nH]nc(Cl)c4c3)CC1)O2` [1.109]: the pIC50 is 7.92. With `COc1cc(C(=O)N2CCC3(CC2)CC(=O)c2nn(C(C)(C)C)cc2O3)cc2nc(C)oc12` [9.003], the pIC50 was 7.54. Same read-out and setting: in the case of `COc1c(C(=O)N2CCC3(CC2)CC(=O)c2nn(C(C)(C)C)cc2O3)ccc2cn[nH]c12` [2.020] it was 7.57. Same read-out and setting: in the case of `CCn1nc2c(c1C)OC1(CCN(C(=O)c3ccc4cn[nH]c4c3OC)CC1)CC2=O` [2.021] it was 7.15; in that of `CCn1nc2c(c1C)OC1(CCN(C(=O)c3cc(C)c4nc(C)[nH]c4c3)CC1)CC2=O` [3.002], 7.27; in that of `CCn1nc2c(c1C)OC1(CCN(C(=O)c3ccc4sc(C)nc4c3)CC1)CC2=O` [14.002], 6.75.

With `Cc1cc(C(=O)N2CCC3(CC2)CC(=O)c2nn(CC(C)C)c(C)c2O3)cc2cn[nH]c12` [1.130], the pIC50 was 7.89.

With `Cc1noc2cc(C(=O)N3CCC4(CC3)CC(=O)c3nn(C(C)(C)C)cc3O4)ccc12` [23.002], the pIC50 was 7.26. As for `Cc1n[nH]c2ccc(C(=O)N3CCC4(CC3)CC(=O)c3nn(C5CCCCC5)cc3O4)cc12` [1.087], the pIC50 is 6.87. Consider `Cc1cc(C(=O)N2CCC3(CC2)CC(=O)c2nn(C4CCC4)c(C)c2O3)cc2cn[nH]c12` [1.128], for which the pIC50 is 8.10.

As to `CCc1n[nH]c2c(C)cc(C(=O)N3CCC4(CC3)CC(=O)c3nn(CC)cc3O4)cc12` [1.019], the pIC50 is 7.74. Turning to `Cc1n[nH]c2c(C)cc(C(=O)N3CCC4(CC3)CC(=O)c3nn(C)cc3O4)cc12` [1.006], the pIC50 was 7.10. Consider `COc1cc(C(=O)N2CCC3(CC2)CC(=O)c2nn(C(C)(C)C)c(C)c2O3)cc2cn[nH]c12` [1.054], for which the pIC50 was 7.54. Turning to `CC(C)n1cc2c(n1)C(=O)CC1(CCN(C(=O)c3ccc4cnoc4c3)CC1)O2` [23.004], the pIC50 was less than 6.00. In the case of `CCc1n[nH]c2c(OC)cc(C(=O)N3CCC4(CC3)CC(=O)c3nn(C(C)C)cc3O4)cc12` [1.044], the pIC50 is 8.30. Still for that read-out and setting: in the case of `CCc1n[nH]c2c(OC)cc(C(=O)N3CCC4(CC3)CC(=O)c3nn(C5CCCC5)cc3O4)cc12` [1.049] it was 8.15; in that of `Cc1cc(C(=O)N2CCC3(CC2)CC(=O)c2nn(C4CC4)cc2O3)cc2cn[nH]c12` [1.144], 7.72; in that of `Cc1cc(C(=O)N2CCC3(CC2)CC(=O)c2nn(C(C)(C)C)cc2O3)cc2c1ncn2C` [3.023], 7.82. The same measure, in the same setting: in the case of `CC(C)(C)n1cc2c(n1)C(=O)CC1(CCN(C(=O)c3ccc4cn[nH]c4c3F)CC1)O2` [2.017] it was 7.28. `CCc1cc(C(=O)N2CCC3(CC2)CC(=O)c2nn(CC)c(C)c2O3)cc2cn[nH]c12` [1.056]: the pIC50 was 7.46. Same read-out and setting: in the case of `Cn1ccc2ccc(C(=O)N3CCC4(CC3)CC(=O)c3nn(C(C)(C)C)cc3O4)cc21` [18.001] it was 8.52; in that of `CCn1nc2c(c1C)OC1(CCN(C(=O)c3ccc4nn(C)cc4c3)CC1)CC2=O` [25.004], 6.91. Still for that read-out and setting: in the case of `Cn1ncc2ccc(C(=O)N3CCC4(CC3)CC(=O)c3nn(C(C)(C)C)cc3O4)cc21` [2.013] it was 7.72; in that of `Cc1cc(C(=O)N2CCC3(CC2)CC(=O)c2nn(C4CCCC4)cc2O3)cc2c(Cl)n[nH]c12` [1.107], 8.52. Turning to `CCc1cc(C(=O)N2CCC3(CC2)CC(=O)c2nn(CC)cc2O3)cc2c(C)n[nH]c12` [1.100], the pIC50 is 7.44.

In the case of `CCn1nc2c(c1C)OC1(CCN(C(=O)c3ccc4cnsc4c3)CC1)CC2=O` [24.003], the pIC50 was 6.39. For the molecule `CCn1cc2c(n1)C(=O)CC1(CCN(C(=O)c3cc(C)c4nc(C)[nH]c4c3)CC1)O2` [3.004], the pIC50 is 6.95. As for `Cc1nc2ccc(C(=O)N3CCC4(CC3)CC(=O)c3nn(C(C)(C)C)cc3O4)cc2[nH]1` [3.011], the pIC50 is 7.82.

For `CCn1nc2c(c1C)OC1(CCN(C(=O)c3ccc4[nH]nc(C)c4c3)CC1)CC2=O` [1.080], the pIC50 was 7.44. Take `CC(C)(C)n1cc2c(n1)C(=O)CC1(CCN(C(=O)c3ccc4c(c3)OCC(=O)N4)CC1)O2` [13.003]: the pIC50 is 7.31. For `CC(C)n1cc2c(n1)C(=O)CC1(CCN(C(=O)c3ccc4snc(N)c4c3)CC1)O2` [7.001], the pIC50 was 7.80.

Broadly, the pIC50 is the negative decadic logarithm of the IC50, by convention in mol/L.
